Columns and labels:
Assay in all cases: relative viability (nuclei count vs DMSO), 5 days (fraction); higher = more cells survive
[1] = system: NCI-H1944
Outline: (§1)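 Each reported value is a median over duplicate plates. It expresses relative viability: treated-well nuclei count divided by vehicle-well nuclei count. Lung cancer cell lines in 1536-well plates were dosed by pin tool a day after seeding, alone with one drug or with a fixed anchor-drug dose plus five library-drug doses (not always all listed) in √10 steps, and nuclei were counted after 5 days.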

[2] = system: NCI-H2405
Outline: as §1

[3] = system: UMC-11
Outline: as §1

[4] = system: LU99A
Outline: as §1

[5] = system: HCC-78
Outline: as §1

[6] = system: LOU-NH91
Outline: as §1

[7] = system: LC-2-ad
Outline: as §1

[8] = system: RERF-LC-KJ
Outline: as §1

[9] = system: NCI-H1395
Outline: as §1

[10] = system: NCI-H1734
Outline: as §1

[11] = system: NCI-H1651
Outline: as §1

[12] = system: NCI-H2228
Outline: as §1

[13] = system: ChaGo-K-1
Outline: as §1

[14] = system: NCI-H1793
Outline: as §1

[15] = system: NCI-H3122
Outline: as §1

[16] = system: ABC-1
Outline: as §1

[17] = system: HCC-366
Outline: as §1

[18] = system: NCI-H460
Outline: as §1

[19] = system: NCI-H2170
Outline: as §1

[20] = system: CAL-12T
Outline: as §1

[21] = system: PC-3 [JPC-3]
Outline: as §1

[22] = system: NCI-H2087
Outline: as §1

[23] = system: NCI-H1755
Outline: as §1

CC1(C)CCC(c2ccc(Cl)cc2)=C(CN2CCN(c3ccc(C(=O)NS(=O)(=O)c4ccc(N[C@H](CCN5CCOCC5)CSc5ccccc5)c(S(=O)(=O)C(F)(F)F)c4)cc3)CC2)C1 [Navitoclax] + O=C(c1cc(Cc2n[nH]c(=O)c3ccccc23)ccc1F)N1CCN(C(=O)C2CC2)CC1 [Olaparib] (partner 8 µM)
relative viability ([1]; first compound 0.005 µM): 0.383 | relative viability ([1]; first compound 0.01581 µM): 0.403 | relative viability ([1]; first compound 0.1581 µM): 0.412 | relative viability ([1]; first compound 0.5 µM): 0.401 | relative viability ([2]; first compound 0.005 µM): 0.803 | relative viability ([2]; first compound 0.01581 µM): 0.881 | relative viability ([2]; first compound 0.05 µM): 0.953 | relative viability ([2]; first compound 0.1581 µM): 0.801 | relative viability ([2]; first compound 0.5 µM): 0.739 | relative viability ([3]; first compound 0.005 µM): 0.89 | relative viability ([3]; first compound 0.01581 µM): 0.361 | relative viability ([3]; first compound 0.05 µM): 0.346 | relative viability ([3]; first compound 0.1581 µM): 0.317 | relative viability ([3]; first compound 0.5 µM): 0.266 | relative viability ([4]; first compound 0.005 µM): 0.257 | relative viability ([4]; first compound 0.01581 µM): 0.275 | relative viability ([4]; first compound 0.1581 µM): 0.269 | relative viability ([4]; first compound 0.5 µM): 0.276 | relative viability ([5]; first compound 0.005 µM): 0.844 | relative viability ([5]; first compound 0.01581 µM): 0.776 | relative viability ([5]; first compound 0.05 µM): 0.696 | relative viability ([5]; first compound 0.1581 µM): 0.925 | relative viability ([5]; first compound 0.5 µM): 0.863 | relative viability ([6]; first compound 0.005 µM): 0.909 | relative viability ([6]; first compound 0.01581 µM): 0.928 | relative viability ([6]; first compound 0.05 µM): 0.697 | relative viability ([6]; first compound 0.1581 µM): 0.658 | relative viability ([6]; first compound 0.5 µM): 0.37 | relative viability ([7]; first compound 0.005 µM): 0.729 | relative viability ([7]; first compound 0.01581 µM): 0.744 | relative viability ([7]; first compound 0.05 µM): 0.654 | relative viability ([7]; first compound 0.1581 µM): 0.698 | relative viability ([7]; first compound 0.5 µM): 0.701 | relative viability ([8]; first compound 0.005 µM): 0.887 | relative viability ([8]; first compound 0.01581 µM): 0.796 | relative viability ([8]; first compound 0.05 µM): 0.917 | relative viability ([8]; first compound 0.1581 µM): 0.861 | relative viability ([8]; first compound 0.5 µM): 0.983 | relative viability ([9]; first compound 0.005 µM): 0.456 | relative viability ([9]; first compound 0.01581 µM): 0.495 | relative viability ([9]; first compound 0.05 µM): 0.441 | relative viability ([9]; first compound 0.1581 µM): 0.428 | relative viability ([9]; first compound 0.5 µM): 0.473 | relative viability ([10]; first compound 0.005 µM): 0.626 | relative viability ([10]; first compound 0.01581 µM): 0.67 | relative viability ([10]; first compound 0.1581 µM): 0.534 | relative viability ([10]; first compound 0.5 µM): 0.535 | relative viability ([11]; first compound 0.005 µM): 0.167 | relative viability ([11]; first compound 0.01581 µM): 0.181 | relative viability ([11]; first compound 0.05 µM): 0.152 | relative viability ([11]; first compound 0.1581 µM): 0.189 | relative viability ([11]; first compound 0.5 µM): 0.197 | relative viability ([12]; first compound 0.005 µM): 0.941 | relative viability ([12]; first compound 0.01581 µM): 0.754 | relative viability ([12]; first compound 0.1581 µM): 0.758 | relative viability ([12]; first compound 0.5 µM): 0.638 | relative viability ([13]; first compound 0.005 µM): 0.445 | relative viability ([13]; first compound 0.01581 µM): 0.472 | relative viability ([13]; first compound 0.05 µM): 0.28 | relative viability ([13]; first compound 0.1581 µM): 0.453 | relative viability ([13]; first compound 0.5 µM): 0.461 | relative viability ([14]; first compound 0.005 µM): 0.903 | relative viability ([14]; first compound 0.01581 µM): 1.05 | relative viability ([14]; first compound 0.1581 µM): 0.885 | relative viability ([14]; first compound 0.5 µM): 0.684 | relative viability ([15]; first compound 0.005 µM): 0.605 | relative viability ([15]; first compound 0.01581 µM): 0.577 | relative viability ([15]; first compound 0.05 µM): 0.576 | relative viability ([15]; first compound 0.1581 µM): 0.655 | relative viability ([15]; first compound 0.5 µM): 0.597 | relative viability ([16]; first compound 0.005 µM): 0.909 | relative viability ([16]; first compound 0.01581 µM): 0.783 | relative viability ([16]; first compound 0.05 µM): 0.838 | relative viability ([16]; first compound 0.1581 µM): 0.859 | relative viability ([16]; first compound 0.5 µM): 0.776 | relative viability ([17]; first compound 0.005 µM): 0.362 | relative viability ([17]; first compound 0.01581 µM): 0.43 | relative viability ([17]; first compound 0.1581 µM): 0.404 | relative viability ([17]; first compound 0.5 µM): 0.399 | relative viability ([18]; first compound 0.005 µM): 0.424 | relative viability ([18]; first compound 0.01581 µM): 0.499 | relative viability ([18]; first compound 0.05 µM): 0.359 | relative viability ([18]; first compound 0.1581 µM): 0.388 | relative viability ([18]; first compound 0.5 µM): 0.402 | relative viability ([19]; first compound 0.005 µM): 0.574 | relative viability ([19]; first compound 0.01581 µM): 0.62 | relative viability ([19]; first compound 0.05 µM): 0.53 | relative viability ([19]; first compound 0.1581 µM): 0.58 | relative viability ([19]; first compound 0.5 µM): 0.56 | relative viability ([20]; first compound 0.005 µM): 0.715 | relative viability ([20]; first compound 0.01581 µM): 0.651 | relative viability ([20]; first compound 0.05 µM): 0.674 | relative viability ([20]; first compound 0.1581 µM): 0.75 | relative viability ([20]; first compound 0.5 µM): 0.791 | relative viability ([21]; first compound 0.005 µM): 1.1 | relative viability ([21]; first compound 0.01581 µM): 1.14 | relative viability ([21]; first compound 0.05 µM): 1.22 | relative viability ([21]; first compound 0.1581 µM): 1.07 | relative viability ([21]; first compound 0.5 µM): 0.871 | relative viability ([22]; first compound 0.005 µM): 0.69 | relative viability ([22]; first compound 0.01581 µM): 0.632 | relative viability ([22]; first compound 0.1581 µM): 0.638 | relative viability ([22]; first compound 0.5 µM): 0.598 | relative viability ([23]; first compound 0.005 µM): 0.831 | relative viability ([23]; first compound 0.01581 µM): 0.929 | relative viability ([23]; first compound 0.05 µM): 0.686 | relative viability ([23]; first compound 0.1581 µM): 0.818 | relative viability ([23]; first compound 0.5 µM): 0.897
